Literature values as cited in patent US20200221707A1, “Sanitizing Compositions and Methods for Making and Using Same” (priority 2017, published 2020).

Experiments:
[1] = test system: Gram-negative bacteria and fungi
most bacteria = details: in <30 seconds

SMILES	amount effective against Gram-negative bacteria and fungi [1]	amount active against Gram-positive bacteria (Gram-positive bacteria)	bacteria destroyed (most bacteria) [%]
[H]/N=C(\N/C(=N/[H])NCCCCCCNC(=N)NC(=N)Nc1ccc(Cl)cc1)Nc1ccc(Cl)cc1 [Chlorhexidine]	10-80 ppm	at least 1 ppm	
CC(C)O [Isopropyl alcohol]			> 99.99
